Results reported in PMC5479551, “Development of a range of fluorescent reagentless biosensors for ATP, based on malonyl-coenzyme A synthetase” (PLoS ONE, 2017).
“And” between values parts separate entries of the source, which are not always exact repeats. Equal values may be shown once.

Legend:
Parent (Rho-MatB) = molecular target: T1, Parent (Rho-MatB) (Rhodopseudomonas palustris, UniProt Q6ND88, C106A/K488A/Q457C/R286C); test: Competition fluorescence titration of ATP into 0.5 µM parent Rho-MatB at fixed AMP (500 or 1000 µM) in 50 mM Hepes pH 7.0, 100 mM NaCl, 10 mM MgCl2, 0.3 mg/ml BSA, 20°C.; assay type: binding; conditions: read-out: KAMP (ATP titrated at fixed AMP)
T1 construct: N-terminal His6-tag, expressed in E. coli; two tetramethylrhodamines (5-IATR) on introduced cysteines
Experimental: Fig 6 Competition titrations between ATP and AMP binding to Rho-MatB variants. Titrations were under conditions as Fig 2, using 0.5 μM of the Rho-MatB variant. (A) Titration of AMP into Rho-MatB complex with a fixed concentration of ATP: 7 μM for the parent Rho-MatB (“wt”) and S170A, 50 μM for T303A and 150 μM for T167A. One representative data set is shown. Fluorescence changes were fit to A0[ATP]/(K' +[ATP]), where the apparent dissociation constant for ATP, K' = KATP(1 + [AMP]/KAMP). KATP and KAMP are the actual dissociation constants for ATP and AMP and A0 is the total fluorescence change at that ATP concentration. Taking the previously obtained values for KATP, the values of KAMP were 169 ± 23 μM for the parent Rho-MatB, 225 ± 15 μM for S170A, and 300 ± 12 μM for T167A. […] Data were fitted to the equation above, giving KAMP as 233 ± 11 μM using 500 μM AMP and 255 ± 16 μM at 1000 μM AMP.
Doing the competition titration the other way round, fixing AMP, caused a shift in apparent dissociation constant of ATP. […] Alternatively, fitting the data as described in Fig 6 gave values for the AMP dissociation constant that were similar to those in Fig 6A. The amplitude of the signal changes only little with AMP, but the range of ATP concentrations over the maximal signal change, is increased as AMP increases

pyruvate kinase = molecular target: T2, pyruvate kinase (Oryctolagus cuniculus, UniProt P11974); test: Steady-state pyruvate kinase assay using T303A variant ATP biosensor; assay type: biochemical, rabbit; conditions: 50 mM HEPES pH 7.2, 100 mM KCl, 10 mM MgCl2, 25°C; 500 μM phosphoenolpyruvate; 1 μM T303A rho-MatB as ATP sensor; read-out: Km for ADP
T2 construct: pyruvate kinase (rabbit muscle from Sigma); purchased Sigma; host or cells: rabbit muscle (tissue-derived)
Experimental: Steady-state activity measurements of pyruvate kinase (rabbit muscle from Sigma) were obtained using fluorescence on a CLARIOstar microplate reader (BMG Labtech). Assays were set up in 100 μl or 40 μl using 96-well using 384-well polystyrene microplates (low-protein-binding, Corning, USA) respectively.
We show one type of steady-state assay using a weak-binding variant, namely T303A, and a well understood enzyme system. This variant was used to measure the Km for ADP with pyruvate kinase (Fig 7). This measurement would not have been possible with the original reagent, as it requires measurements with hundreds of micromolar ADP. The assay measured formation of ATP as a function of time and made use of calibrations of the fluorescence signal at 0 and 500 μM ADP.
Fig 7 Test assay, measurement of the Km of ADP with pyruvate kinase using T303A variant ATP biosensor. The assay was run in multiwell format in 50 mM HEPES buffer pH 7.2, 100 mM KCl, 10 mM MgCl2, 0.3 mg ml^-1 bovine serum albumin at 25°C. The assay components were 500 μM phosphoenolpyruvate, 0.005 unit ml^-1 pyruvate kinase, 1 μM T303A rho-MatB and the micromolar concentrations of ADP shown on the inset panel for an illustrative set of traces. The data are shown as ATP production rates, using calibrations done at 0–20 μM ATP at 0 μM ADP and with ADP to make 500 μM total nucleotide concentration. […]

T1 sequence (Q6ND88 entry or part of it C106A/R286C/Q457C/K488A): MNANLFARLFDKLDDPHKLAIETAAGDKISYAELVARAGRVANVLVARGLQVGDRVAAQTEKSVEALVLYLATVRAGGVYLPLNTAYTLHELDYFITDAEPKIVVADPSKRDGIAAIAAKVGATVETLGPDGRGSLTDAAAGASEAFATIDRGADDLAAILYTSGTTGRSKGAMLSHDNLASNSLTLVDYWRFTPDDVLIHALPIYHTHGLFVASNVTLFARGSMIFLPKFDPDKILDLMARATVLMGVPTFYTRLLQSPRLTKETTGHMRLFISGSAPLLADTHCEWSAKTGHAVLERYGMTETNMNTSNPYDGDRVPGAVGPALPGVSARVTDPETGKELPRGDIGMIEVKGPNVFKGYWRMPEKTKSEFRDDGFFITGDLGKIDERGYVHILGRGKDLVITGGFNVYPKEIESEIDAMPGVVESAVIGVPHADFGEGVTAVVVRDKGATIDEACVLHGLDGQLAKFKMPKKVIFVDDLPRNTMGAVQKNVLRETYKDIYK
T2 sequence (P11974 whole entry): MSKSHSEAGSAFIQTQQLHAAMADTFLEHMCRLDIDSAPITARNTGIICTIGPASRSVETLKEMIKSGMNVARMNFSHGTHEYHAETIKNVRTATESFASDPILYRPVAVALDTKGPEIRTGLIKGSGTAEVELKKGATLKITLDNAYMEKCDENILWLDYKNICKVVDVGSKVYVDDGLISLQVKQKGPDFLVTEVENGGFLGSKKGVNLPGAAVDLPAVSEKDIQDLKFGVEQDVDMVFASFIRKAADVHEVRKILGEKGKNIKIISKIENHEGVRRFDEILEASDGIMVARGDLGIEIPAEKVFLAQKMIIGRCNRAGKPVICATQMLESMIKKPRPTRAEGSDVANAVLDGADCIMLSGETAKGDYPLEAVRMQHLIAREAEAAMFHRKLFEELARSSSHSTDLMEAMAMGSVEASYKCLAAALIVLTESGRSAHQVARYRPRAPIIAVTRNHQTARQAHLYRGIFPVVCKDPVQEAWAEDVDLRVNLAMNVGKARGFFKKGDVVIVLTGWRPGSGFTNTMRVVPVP

| SMILES | Kd (Parent (Rho-MatB)) | Km (pyruvate kinase) [µM] |
| --- | --- | --- |
| Nc1ncnc2c1ncn2[C@@H]1O[C@H](COP(=O)(O)O)[C@@H](O)[C@H]1O [AMP, adenosine 5'-monophosphate] | 233 µM and 255 µM | – |
| Nc1ncnc2c1ncn2[C@@H]1O[C@H](COP(=O)(O)OP(=O)(O)O)[C@@H](O)[C@H]1O [ADP] | – | 56 ± 4 |
